Here are results for five compounds from paper PMC10819888, “Benzimidazole-Based Derivatives as Apoptotic Antiproliferative Agents: Design, Synthesis, Docking, and Mechanistic Studies” (Molecules, 2024).

The structures appear in SMILES notation. Read-outs that look alike come from different tables or passages of the source.

Assay [1] relates to BRAF^V600E. Further details: method as in PMID 18942827. As to conditions: cited from earlier work.
Assay [2] deals with BRAF^V600E. Further details: method as in PMID 37716963. The conditions noted are these: cited from earlier work.
The subject of another assay is Bax. The assay can be described thus: Bax activation assay. The assay is classed as cell-based, human. As to conditions: PC-3 cell line. The procedure: For more details, see Supplementary Materials.
4.2.5. Bax activation assay
Bring all reagents, except the human Bax-α Standard, to room temperature for at least 30 minutes prior to opening. The human Bax -α Standard solution should not be left at room temperature for more than 10 minutes. All standards, controls and samples should be run in duplicate. Refer to the Assay Layout Sheet to determine the number of wells to be used and put any remaining wells with the desiccant back into the pouch and seal the ziploc. Store unused wells at 4 °C. Pipet 100 μL of Assay Buffer into the S0 ( 0 pg/mL standard) wells. Pipet 100 μL of Standards #1 through #6 into the appropriate wells. Pipet 100 μL of the Samples into the appropriate wells. Tap the plate gently to mix the contents. Seal the plate and incubate at room temperature on a plate shaker for 1 hour at ~500 rpm. Empty the contents of the wells and wash by adding 400 μL of wash solution to every well. Repeat the wash 4 more times for a total of 5 washes. After the final wash, empty or aspirate the wells and firmly tap the plate on a lint fr ee paper towel to remove any remaining wash buffer. Pipet 100 μL of yellow Antibody into each well, except the Blank. Seal the plate and incubate at room temperature on a plate shaker for 1 hour at ~500 rpm. Empty the contents of the wells and wash by addi ng 400 μL of […]
the final wash, empty or aspirate the wells and firmly tap the plate on a lint free paper towel to remove any remaining wash buffer. Add 100 μL of blue Co njugate to each well, except the Blank. Seal the plate and incubate at room temperature on a plate shaker for 30 minutes at ~500 rpm. Empty the contents of the wells and wash by adding 400 μL of wash solution to every well. Repeat the wash 4 more times for a total of 5 washes .
After the final wash, empty or aspirate the wells and firmly tap the plate on a lint free paper towel to remove any remaining wash buffer. Pipet 100 μL of Substrate Solution into each well. Incubate for 30 minutes at room temperature on a plate shaker at ~500 rpm. Pipet 100 μL Stop Solution to each well. Blank the plate reader against the Blank wells, read the optical density at 450 nm. Calculate the average net Optical Density (OD) bound for each standard and sample by subtracting the average Blank OD from the average OD for each standard and sample. Using linear graph paper, plot the Average Net OD for each standard versus Bax concentration in each standard.
Approximate a straight line through the points. The concentration of Bax in the unknowns can be determined by interpolation. […]

The test system of another assay is Bcl-2. Kind of assay: Bcl-2 inhibition assay. The assay is classed as cell-based, human. As to conditions: PC-3 cell line. On the procedure: (§1) For more details, see Supplementary Materials. […]
4.2.6. Bcl-2 inhibition assay
Mix all reagents thoroughly without foaming before use. Wash the microwells twice with approximately 300 μL Wash Buffer per well with thorough aspiration of microwell contents between washes. Take caution not to scratch the surface of the microwells.
After the last wash, empty the wells and tap microwell strips on absorbent pad or paper towel to remove excess Wash Buffer. Use the microwell strips immediately after washing or place upside down on a wet absorbent paper for not longer than 15 minutes.
Add 100 μL of Sample Diluent in duplicate to all standard wells and to the blank wells. Prepare standard (1:2 dilution) in duplicate ranging from 32 ng/mL to 0.5 ng/mL. Add 100 μL of Sample Diluent, in duplicate, to the blank wells.
Add 80 μL of Sample Diluent, in duplicate, to the sample wells. Add 20 μL of each Sample, in duplicate, to the designated wells. Add 50 μL of diluted biotin-conjugate to all wells, including the blank wells. Cover with a plate cover and incubate at room temperature, on a microplate shaker at 100 rpm if available, for 2 hours. Remove plate cover and empty the wells. Wash microwell strips 3 times as described in step 2. Add 100 μL of diluted Streptavidin-HRP to all wells, including the blank wells. Cover with a plate cover and incubate at room temperature, on a microplate shaker at 100 rpm if available, for 1 hour. Remove plate cover and empty the wells. Wash microwell strips […]
3 times as described in step 2. Proceed to the next step. Pipette 100 μl of mixed TMB Substrate Solution to all wells, including the blanks. Incubate the microwell strips at room temperature (18° to 25°C) for about 15 minutes, if available on a rotator set at 100 rpm. Avoid direct exposure to intense light. The point, at which the substrate reaction is stopped, is often determined by the ELISA reader. Many ELISA readers record absorbance only up to 2.0 O.D. Therefore, the color development within individual microwells must be watched by the person running the assay and the substrate reaction stopped before positive wells are no longer properly detectable. Stop the enzyme reaction by quickly pipetting 100 μL of Stop Solution into each well, including the blank wells. It is important that the Stop Solution is spread quickly and uniformly throughout the microwells to completely inactivate the enzyme. Results must be read immediately after the Stop Solution is added or within one hour if the microwell strips are stored at 2 - 8°C in the dark. Read absorbance of each microwell on a spectrophotometer using 450 nm as the primary wavelength.
4.3. Statistical analysis
Computerized Prism 5 program was used to statistically analyzed data using one-way ANOVA test followed by Tukey’s as post ANOVA for multiple comparison at P ≤.05.
Data were presented as mean ± SEM.

The next assay deals with caspase-3. Kind of assay: Caspase-3 activation assay. The assay is classed as cell-based, human. As to conditions: PC-3 cell line.
Text: Caspase-3 is a key caspase that cleaves numerous cell proteins, resulting in apoptosis. […] They elevated the protein caspase-3 in the PC-3 cancer cell line by around seven to nine times compared to untreated control cells.
as §1
4.2.3. Caspase-3 activation assay
Allow all reagents to reach room temperature before use. Gently mix all liquid reagents prior to use. Determine the number of 8-well strips needed for the assay. Insert these in the frame(s) for current use. Add 100 μl of the Standard Diluent Buffer to the zero standard wells. Well(s) reserved for chromogen blank should be left empty. Add 100 μl of standards and controls or diluted samples to the appropriate microtiter wells. The sample dilution chosen should be optimized for each experimental system. Tap gently on side of plate to mix. Cover wells with plate cover and incubate for 2 hours at room temperature. Thoroughly aspirate or decant solution from wells and discard the liquid, Wash wells 4 times. Pipette 100 μl of Caspase-3 (Active) Detection Antibod y solution into each well except the chromogen blank(s). Tap gently on the side of the plate to mix.
Cover plate with plate cover and incubate for 1 hour at room temperature. Thoroughly aspirate or decant solution from wells and discard the liquid, Wash well s 4 times. Add 100 μl Anti-Rabbit IgG HRP Working Solution to each well except the chromogen blank(s). Prepare the working dilution as described in Preparing IgG HRP. Cover wells with the plate cover and incubate for 30 minutes at room temperature. Thoroughly aspirate or decant solution from wells and discard the liquid. Wash wells 4 times. Add 100 μl of Stabilized Chromogen to each well. The liquid in the wells will begin to turn blue. Incubate for 30 minutes at room temperature and in the dark. The incuba tion time for chromogen substrate is often determined by the microtiter plate reader used. Many plate readers have the capacity to record a maximum optical density (O.D.) of 2.0. The O.D. values should be monitored, and the substrate reaction stopped befor e the O.D. of […]
the positive wells exceeds the limits of the instrument. The O.D. values at 450 nm can only be read after the Stop Solution has been added to each well. If using a reader that […]
100 μl of Stop Solution to each well. Tap side of plate gently to mix. The solution in the wells should change from blue to yellow. Read the absorbance of each well at 450 nm having blanked the plate reader against a chromogen blank composed of 100 μl each of Stabilized Chromogen and Stop Solution. Read the plate within 2 hours after adding the Stop Solution. Use a curve fitting software to generate the standard curve. A four-parameter algorithm provides the best standard curve fit. Read the concentrations for unknown samples and controls from the standard curve. Multiply value(s) obtained for sample(s) by the appropriate dilution factor to correct for the dilution in step 3. Samples producing signals greater than that of the highest standard should be diluted in Standard Diluent Buffer and reanalyzed. […]
A standard curve is […]
prepared from 7human Caspase-8 standard dilutions and human Caspase-8 concentration determined.

Another assay has as its system four cancer cell lines. Further details: method as in PMID 37716963. The conditions noted are these: against four cancer cell lines; cited from earlier work.
Setting [3] is: Figure 1, read-out: IC50 BRAF inhibitor.
[4] abbreviates: text b8, read-out: IC50 anti-BRAF^V600E.

For the compound `NNC(=O)c1ccc2[nH]c(-c3ccc(Cl)cc3)nc2c1` [Compound 3], the half-inhibitory concentration (IC50) with BRAF^V600E [1] (setting [3]) was 0.014 µM; with BRAF^V600E [1] (setting [4]) it was 14 µM.
As to `C#Cc1cccc(Nc2ncnc3cc(OCCOC)c(OCCOC)cc23)c1` [erlotinib], in the assay on BRAF^V600E [2], the concentration for half-maximal inhibition (IC50) is […].
Consider `CN[C@@H]1C[C@H]2O[C@@](C)([C@@H]1OC)n1c3ccccc3c3c4c(c5c6ccccc6n2c5c31)C(=O)NC4` [staurosporine, reference compound], for which, in the assay on Bax, the “Bax Conc” value was found to be 170 pg/mL, the “Bax increase compared to untreated PC-3 cancer cells” value worked out at 24 fold and the Bax level amounted to 170 pg/mL. The “Bcl-2 Conc” value with Bcl-2 is 1.00 ng/mL. Moreover, in the assay on caspase-3, the “Caspase-3 Conc” value came to 260 ± 5 pg/mL and the caspase-3 protein level is recorded as 260 ± 5 pg/mL.
As for `COC(=O)c1ccc2[nH]c(-c3ccc(Cl)cc3)nc2c1` [Compound 2], the IC50 with BRAF^V600E [1] (setting [3]) was 0.002 µM; in the assay on BRAF^V600E [1] (setting [4]), 2 µM.
For `COc1ccc(-c2nc3cc(-c4nnc(SCC(=O)Nc5ccc(C(=O)/C=C/c6ccccc6)cc5)o4)ccc3[nH]2)cc1` [Compound 4], in the assay with BRAF^V600E [2], the IC50 is 1.7 ± 0.2 µM. In addition, the GI50 in the assay with four cancer cell lines was 1.2 µM.

What is called IC50 is the concentration at which inhibition is half-maximal. A word on the GI50: it is the concentration that inhibits growth by half.
